Data: US20260083865A1, “PROSTATE SPECIFIC MEMBRANE ANTIGEN (PSMA) LIGANDS AND USE THEREOF” (priority 2022, published 2026)
Where two headings read alike, the source gives them in different places. Numbered stars: 1 amine (or outer) side, 2 acyl side, 3 side chain; on linkers, the order of the positions; unused ones are H or OH. Bridge positions count the residues as written; N and C are the ends. Square brackets hold non-standard residues; d marks the D form. Side chains are listed from the residue outwards. Peptide text beside a SMILES is read from it. * marks the point of attachment. DOTA = O=C(O)CN1CCN(CC(=O)O)CCN(CC(=O)*)CCN(CC(=O)O)CC1; Phe(4-Cl) = N[C@@H](Cc1ccc(Cl)cc1)C(=O)O; Phe(3-F) = N[C@@H](Cc1cccc(F)c1)C(=O)O; Arg(Me) = CNC(=N)NCCC[C@H](N)C(=O)O; hArg = N=C(N)NCCCC[C@H](N)C(=O)O; 3Pal = N[C@@H](Cc1cccnc1)C(=O)O; X1 = O=C(CC1CCN([*:1])CC1)[*:2]; Cit = NC(=O)NCCC[C@H](N)C(=O)O; Lys(Me) = CNCCCC[C@H](N)C(=O)O; Tle = CC(C)(C)[C@H](N)C(=O)O; αMeS = C[C@](N)(CO)C(=O)O; Aib = CC(C)(N)C(=O)O; Ahx = NCCCCCC(=O)O

Assays:
[1] = molecular target: T1, Fc-fusion protein of human PSMA (hPSMA-Fc) (Homo sapiens, UniProt Q04609); assay: Surface plasmon resonance assay (Biacore T200, single cycle kinetic); format: binding; conditions: read-out: pKD CAT (converted)
T1 construct: purchased Acro Biosystems PSA-H5264
Method in brief: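 KD, expressed as pKD, came from 1:1 Langmuir fits of reference- and buffer-blank-subtracted SPR data. The runs were single-cycle kinetics at 25° C in HBST/0.1% DMSO over human PSMA-Fc, captured to ~1000 RU on a peptide-coated CM5 surface and regenerated with 10 mM glycine pH 1.5.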

[2] = molecular target: T2, PSMA-expressing C4-2 cells (Homo sapiens, UniProt Q04609); assay: FACS binding assay (competition with 50 nM PSM-0183); conditions: read-out: pIC50 [C4-2] CAT (converted)
T2 construct: PSMA-expressing C4-2 cells (ATCC, Cat. No. CRL-3314) were cultured in RPMI-1640; host or cells: C4-2 cells
Method in brief: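 Competition format: fluorescent tracer PSM-0183 (50 nM) displaced from PSMA on C4-2 cells by a test compound titration over 1 h at 4 °C. Bound tracer was quantified as flow-cytometric AF488 median fluorescence after washing. Four-parameter logistic fits of MFI data gave IC50 and pIC50.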

[3] = pKD category for PSMA SPR activity assay, hPSMA-Fc, 25° C.
[4] = pIC50 category of FACS binding, C4-2 cells

T2 sequence (Q04609 whole entry): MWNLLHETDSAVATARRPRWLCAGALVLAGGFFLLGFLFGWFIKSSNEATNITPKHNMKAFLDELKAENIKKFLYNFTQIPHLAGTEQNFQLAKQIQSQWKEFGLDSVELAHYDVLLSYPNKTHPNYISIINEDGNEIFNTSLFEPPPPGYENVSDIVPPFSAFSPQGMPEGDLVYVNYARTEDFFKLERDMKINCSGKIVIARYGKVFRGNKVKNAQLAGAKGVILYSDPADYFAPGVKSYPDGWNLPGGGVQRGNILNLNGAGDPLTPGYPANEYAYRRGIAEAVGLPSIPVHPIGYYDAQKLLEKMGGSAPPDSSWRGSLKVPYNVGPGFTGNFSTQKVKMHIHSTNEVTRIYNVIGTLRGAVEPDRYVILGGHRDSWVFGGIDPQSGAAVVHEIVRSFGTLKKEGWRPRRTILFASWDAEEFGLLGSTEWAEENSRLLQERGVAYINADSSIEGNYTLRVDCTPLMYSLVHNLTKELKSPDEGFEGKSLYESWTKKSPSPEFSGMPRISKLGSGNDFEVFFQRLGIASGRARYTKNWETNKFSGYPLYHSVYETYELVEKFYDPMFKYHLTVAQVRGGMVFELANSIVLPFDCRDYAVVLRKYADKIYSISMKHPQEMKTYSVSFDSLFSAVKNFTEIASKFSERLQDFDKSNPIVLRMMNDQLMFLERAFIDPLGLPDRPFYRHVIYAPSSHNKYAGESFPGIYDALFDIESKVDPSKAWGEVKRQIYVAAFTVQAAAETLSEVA
T1 sequence (Q04609 44-750 limits assumed): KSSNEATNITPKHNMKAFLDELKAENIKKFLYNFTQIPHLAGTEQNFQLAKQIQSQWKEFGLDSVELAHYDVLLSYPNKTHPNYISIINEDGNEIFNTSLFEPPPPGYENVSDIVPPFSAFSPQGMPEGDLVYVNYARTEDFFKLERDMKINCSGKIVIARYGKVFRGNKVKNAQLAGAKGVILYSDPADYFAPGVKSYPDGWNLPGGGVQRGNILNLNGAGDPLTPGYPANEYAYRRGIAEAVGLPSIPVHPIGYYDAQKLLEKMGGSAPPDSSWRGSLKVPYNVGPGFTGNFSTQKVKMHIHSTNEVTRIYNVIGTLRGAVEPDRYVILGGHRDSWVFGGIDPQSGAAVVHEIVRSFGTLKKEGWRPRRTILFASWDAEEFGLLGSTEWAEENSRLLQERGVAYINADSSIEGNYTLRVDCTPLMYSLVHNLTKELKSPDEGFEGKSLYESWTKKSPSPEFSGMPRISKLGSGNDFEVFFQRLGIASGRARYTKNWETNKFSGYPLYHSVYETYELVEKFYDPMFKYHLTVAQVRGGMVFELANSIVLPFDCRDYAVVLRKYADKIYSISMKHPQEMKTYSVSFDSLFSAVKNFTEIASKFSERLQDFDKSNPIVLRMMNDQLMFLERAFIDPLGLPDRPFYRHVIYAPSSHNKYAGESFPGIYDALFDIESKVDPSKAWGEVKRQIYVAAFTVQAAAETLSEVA

Row | Kd [1, 3] [nM] | IC50 [2, 4] [nM] | Compound | also measured
1 | – | – | C[C@@H](O)[C@H](NC(=O)[C@@H](NC(=O)[C@@H]1CSSC[C@H](NC(=O)[C@H](Cc2ccc(Cl)cc2)NC(=O)C(C)(C)NC(=O)[C@@H](NC(=O)CC2CCN(C(=O)CN3CCN(CC(=O)O)CCN(CC(=O)O)CCN(CC(=O)O)CC3)CC2)[C@@H](C)O)C(=O)N[C@@H](CCCCNC(=N)N)C(=O)N[C@@H](CCCNC(=N)N)C(=O)NC(C)(C)C(=O)N[C@@H](CC(N)=O)C(=O)N1)C(C)(C)C)C(N)=O [PSM-0225, DOTA-Cmp-Thr-Aib-Pcf-[Cys-Har-Arg-Aib-Asn-Cys]-Tle-Thr-NH2] ({DOTA}-[X1]T[Aib][Phe(4-Cl)]C[hArg]R[Aib]NC[Tle]T-NH2; disulfide 5-10) | Kd ([1]; SPR, hPSMA-Fc, single cycle kinetic, 25° C., category): < 12.6 nM; IC50 ([2]; FACS binding, C4-2 cells, competition with 50 nM PSM-0183, category): < 200 nM
2 | < 12.6 | < 200 | C[C@@H](O)[C@H](NC(=O)[C@@H](NC(=O)[C@@H]1CSSC[C@H](NC(=O)[C@H](Cc2ccc(Cl)cc2)NC(=O)[C@](C)(CO)NC(=O)[C@@H](NC(=O)CC2CCN(C(=O)CN3CCN(CC(=O)O)CCN(CC(=O)O)CCN(CC(=O)O)CC3)CC2)[C@@H](C)O)C(=O)N[C@@H](CCCCN)C(=O)N[C@@H](CCCNC(=N)N)C(=O)NC(C)(C)C(=O)N[C@@H](CC(N)=O)C(=O)N1)C(C)(C)C)C(N)=O [PSM-0369, DOTA-Cmp-Thr-Ams-Pcf-[Cys-Lys-Arg-Aib-Asn-Cys]-Tle-Thr-NH2] ({DOTA}-[X1]T[αMeS][Phe(4-Cl)]CKR[Aib]NC[Tle]T-NH2; disulfide 5-10) | –
3 | > 501 | 1260 to 3160 | CCCC[C@H](NC(=O)[C@@H]1CSSC[C@H](NC(=O)[C@H](Cc2ccccc2)NC(=O)[C@H](C)NC(=O)[C@@H](NC(C)=O)[C@@H](C)O)C(=O)N[C@@H](CCCCN)C(=O)N[C@@H](CCCNC(=N)N)C(=O)N[C@H](C)C(=O)N[C@@H](CC(N)=O)C(=O)N1)C(=O)N[C@H](C(=O)N[C@@H](CC(=O)O)C(N)=O)[C@@H](C)O [PSM-0474, Ac-Thr-Ala-Phe-[Cys-Lys-Arg-ala-Asn-Cys]-Nle-Thr-Asp-NH2] | –
4 | – | – | CNCCCC[C@@H]1NC(=O)[C@@H](NC(=O)[C@H](Cc2cccnc2)NC(=O)C(C)(C)NC(=O)[C@@H](NC(=O)CC2CCN(C(=O)CN3CCN(CC(=O)O)CCN(CC(=O)O)CCN(CC(=O)O)CC3)CC2)[C@@H](C)O)CSSC[C@@H](C(=O)N[C@H](C(=O)N[C@H](C(N)=O)[C@@H](C)O)C(C)(C)C)NC(=O)[C@H](CC(N)=O)NC(=O)C(C)(C)NC(=O)[C@H](CCCNC(=N)NC)NC1=O [PSM-0296, DOTA-Cmp-Thr-Aib-Mpa-[Cys-Lys(Me)-Arg(Me)-Aib-Asn-Cys]-Tle-Thr-NH2] ({DOTA}-[X1]T[Aib][3Pal]C[Lys(Me)][Arg(Me)][Aib]NC[Tle]T-NH2; disulfide 5-10) | Kd ([1]; PSMA SPR assay, hPSMA-Fc, 25° C., pKD category): 126 to 501 nM; IC50 ([2]; FACS binding, PSMA-expressing C4-2 cells, pIC50 category): 200 to 1260 nM
5 | 12.6 to 126 | < 200 | CNCCCC[C@@H]1NC(=O)[C@@H](NC(=O)[C@H](Cc2cccc(F)c2)NC(=O)C(C)(C)NC(=O)[C@@H](NC(=O)CC2CCN(C(=O)CN3CCN(CC(=O)O)CCN(CC(=O)O)CCN(CC(=O)O)CC3)CC2)[C@@H](C)O)CSSC[C@@H](C(=O)N[C@H](C(N)=O)C(C)(C)C)NC(=O)[C@H](CC(N)=O)NC(=O)C(C)(C)NC(=O)[C@H](CCCNC(=N)NC)NC1=O [PSM-0553, DOTA-Cmp-Thr-Aib-Mff-[Cys-Lys(Me)-Arg(Me)-Aib-Asn-Cys]-Tle-NH2] ({DOTA}-[X1]T[Aib][Phe(3-F)]C[Lys(Me)][Arg(Me)][Aib]NC[Tle]-NH2; disulfide 5-10) | –
6 | – | – | CC(=O)N[C@H](C(=O)NC(C)(C)C(=O)N[C@@H](Cc1ccccc1)C(=O)N[C@H]1CSSC[C@@H](C(=O)N[C@H](C(=O)N[C@H](C(N)=O)[C@@H](C)O)C(C)(C)C)NC(=O)[C@H](CC(N)=O)NC(=O)[C@H](CCCCNC(=O)CCCCCNC(=O)CN2CCN(CC(=O)O)CCN(CC(=O)O)CCN(CC(=O)O)CC2)NC(=O)[C@H](CCCNC(N)=O)NC(=O)[C@H](CCCCN)NC1=O)[C@@H](C)O [PSM-0582, Ac-Thr-Aib-Phe-[Cys-Lys-Arg-Lys(DOTA-Ahx)-Asn-Cys]-Tle-Thr-NH2] (Ac-T[Aib]FCK[Cit]K([Ahx-DOTA])NC[Tle]T-NH2; disulfide 4-9) | Kd ([1]; PSMA SPR assay, category): < 12.6 nM; IC50 ([2]; FACS binding, C4-2 cells, category): < 200 nM
